The results in this text go back to ChEMBL document CHEMBL3739402, “Chromanones: selective and reversible monoamine oxidase B inhibitors with nanomolar potency” (Medchemcomm, 2015).

As usually defined, the inhibition is the share of the control response that was lost under treatment. The term pIC50 denotes the IC50 on a negative log10 scale, so that one unit is a factor of ten.

The target in series [1] is T1, Amine oxidase [flavin-containing] A (Homo sapiens, UniProt P21397).
T1 sequence (P21397 whole entry): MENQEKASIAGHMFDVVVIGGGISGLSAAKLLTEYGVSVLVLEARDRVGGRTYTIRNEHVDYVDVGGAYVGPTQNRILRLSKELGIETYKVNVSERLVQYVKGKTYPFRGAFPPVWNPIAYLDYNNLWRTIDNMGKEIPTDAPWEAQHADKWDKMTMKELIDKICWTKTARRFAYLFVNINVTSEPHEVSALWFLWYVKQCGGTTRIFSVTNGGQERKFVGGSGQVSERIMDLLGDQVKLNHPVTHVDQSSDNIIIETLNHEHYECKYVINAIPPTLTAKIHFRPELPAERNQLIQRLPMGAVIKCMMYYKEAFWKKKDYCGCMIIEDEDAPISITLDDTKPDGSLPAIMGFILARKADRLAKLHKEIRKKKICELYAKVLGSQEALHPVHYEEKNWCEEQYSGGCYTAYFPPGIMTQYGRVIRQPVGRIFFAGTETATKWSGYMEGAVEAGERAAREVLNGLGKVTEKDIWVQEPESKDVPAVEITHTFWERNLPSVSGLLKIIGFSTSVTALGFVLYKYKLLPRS
Description: Inhibition of human MAO-A using p-tyramine as substrate assessed as production of H2O2 from p-tyramine at 100 uM incubated for 15 mins by Amplex Red MAO assay. Particulars: 0.25 h; call rule not given here.

Series [2] concerns the target T2, Amine oxidase [flavin-containing] B (Homo sapiens, UniProt P27338).
T2 sequence (P27338 whole entry): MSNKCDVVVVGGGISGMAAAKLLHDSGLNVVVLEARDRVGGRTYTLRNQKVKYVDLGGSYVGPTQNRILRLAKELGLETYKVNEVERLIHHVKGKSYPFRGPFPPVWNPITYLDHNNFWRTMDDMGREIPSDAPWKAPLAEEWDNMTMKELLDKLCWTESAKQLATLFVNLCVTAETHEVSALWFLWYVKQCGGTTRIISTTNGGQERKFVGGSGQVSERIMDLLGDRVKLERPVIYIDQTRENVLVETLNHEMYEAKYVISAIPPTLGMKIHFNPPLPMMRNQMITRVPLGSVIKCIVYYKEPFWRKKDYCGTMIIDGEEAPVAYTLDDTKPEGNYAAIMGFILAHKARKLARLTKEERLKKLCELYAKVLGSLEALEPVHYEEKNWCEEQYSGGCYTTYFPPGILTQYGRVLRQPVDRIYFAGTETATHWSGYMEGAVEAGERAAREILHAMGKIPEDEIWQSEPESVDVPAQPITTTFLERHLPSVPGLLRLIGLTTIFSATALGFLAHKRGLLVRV
Description: Inhibition of human MAO-B using p-tyramine as substrate assessed as production of H2O2 from p-tyramine incubated for 15 mins by Amplex Red MAO assay.

In series [3] the target is T1, Amine oxidase [flavin-containing] A. Description: Inhibition of human MAO-A using p-tyramine as substrate assessed as production of H2O2 from p-tyramine incubated for 15 mins by Amplex Red MAO assay.
Another series is filed under the species Homo sapiens. The experiment in a line: Selectivity index, ratio of IC50 for human MAO-A to IC50 for human MA)-B by Amplex Red MAO assay.
Another series has as its system SH-SY5Y. The experiment in a line: Neurotoxicity against human SH-SY5Y cells assessed as cell viability at 3 to 50 uM after 48 hrs by MTT assay. It counts as toxicity, cell-based. (In general: Tetrazolium assays rely on reduction of a dye to a coloured formazan, in cell work by metabolically active cells.)
The target in series [4] is T2, Amine oxidase [flavin-containing] B. Description: Competitive inhibition of human MAO-B using 50 to 500 uM p-tyramine as substrate at 4.3 to 17.2 nM by Lineweaver-Burk plot analysis.
Series [5] has the same target. Description: Inhibition of human MAO-B preincubated at twice the IC50 for 60 mins.
Series [6] shares this target. Description: Inhibition of human MAO-B preincubated at twice the IC50 for 30 mins.
Series [7] shares this target. Description: Inhibition of human MAO-B preincubated at twice the IC50 for 15 mins.
Series [8] shares this target. Description: Inhibition of human MAO-B preincubated at twice the IC50 for 0 mins.
Series [9] has the same target. The experiment in a line: Reversible inhibition of human MAO-B preincubated at twice the IC50 for 0 to 60 mins.
Series [10] has the same target. Description: Time dependent inhibition of human MAO-B preincubated at twice the IC50 for 0 to 60 mins.

pIC50: −log10 of the molar value.

Consider `O=C1CCOc2cc(OCCc3ccccc3)ccc21`, for which the inhibition at 100 µM in series [1] was found to be 58%. In series [2], the pIC50 is 6.60.
The like results for `O=C1CCOc2cc(OCc3cccc(Cl)c3)ccc21` were, in that order, 35% and 7.45.
On to `CC1(C)CC(=O)c2ccc(OCc3ccc(Br)cc3)cc2O1`, for which, in series [1], the inhibition at 100 µM stood at 21%. Further, in series [2], the pIC50 is 7.34.
As for `O=C1CCOc2cc(OCc3cccc(Br)c3)ccc21`, in [1], the inhibition at 100 µM worked out at 28%. Besides, the pIC50 in series [2] is 7.52.
In the case of `O=C1COc2cc(OCCCc3ccccc3)ccc21`, the negative logarithm of the IC50 (pIC50) was 4.41 in series [3] and 4.69 in series [2]. Besides, in the series listed under Homo sapiens, the Ratio IC50 turned out to be 1.9.
For `CC1(C)CC(=O)c2ccc(OCc3cccc(Cl)c3)cc2O1`, the inhibition at 100 µM in series [1] came to 31%. Also, in [2], the pIC50 was 7.26.
Take `O=C1CCOc2cc(OCc3ccccc3F)ccc21`: in series [1], the inhibition at 100 µM is 35%. Besides, the pIC50 in series [2] is 7.23.
Take `CC1(C)CC(=O)c2ccc(OCc3ccc(C#N)cc3)cc2O1`: in [1], the inhibition at 100 µM is 23%. The pIC50 in series [2] is 7.16.
In the case of `O=C1COc2cc(OCCc3ccccc3)ccc21`, the pIC50 is 4.33 in [3] and 5.67 in series [2]. Further, the Ratio IC50 in the series filed under Homo sapiens was determined as 21.8.
`Cc1cccc(COc2ccc3c(c2)OCCC3=O)c1`: the inhibition at 100 µM in series [1] is 19%.
On to `O=C1CCOc2cc(OCc3ccccc3)ccc21`, for which the inhibition at 100 µM in series [1] came to 18%. Also, the pIC50 in [2] was 7.24.
On the same counts, the results for `CC1(C)CC(=O)c2ccc(OCc3ccccc3)cc2O1` are 25% and 7.01.
The like results for `Cc1ccc(COc2ccc3c(c2)OC(C)(C)CC3=O)cc1` were, in that order, 25% and 6.95.
On the same counts, the results for `Cc1ccc(COc2ccc3c(c2)OCCC3=O)cc1` are 26% and 7.04.
Turning to `O=C1CCOc2cc(OCc3ccc(Cl)cc3)ccc21`, the inhibition at 100 µM in [1] worked out at 37%.
Regarding `O=C1CCOc2cc(OCc3ccc(F)cc3)ccc21`, in the series with SH-SY5Y, the Activity entry is “Non-toxic”. Also, the “inhibition (INH)” value is on record as “Active” in series [4]; 49.6% in series [5]; 45.5% in series [6]; 44.5% in [7]; 42.4% in series [8]; “Active” in series [9]. Further, the inhibition at 100 µM in series [1] worked out at 43%. In addition, the TDI result in [10] is “Not Active”.
With `CC1(C)CC(=O)c2ccc(OCc3ccccc3F)cc2O1`, the inhibition at 100 µM in [1] turned out to be 28%. In addition, in [2], the pIC50 is 7.16.
As to `O=C1CCOc2cc(O)ccc21`, the pIC50 in [3] was 4.15; in series [2], 4.10. For the same compound, the Ratio IC50 in the series filed under Homo sapiens is 0.9.
Take `O=C1COc2cc(OCc3ccccc3)ccc21`: the pIC50 in [3] is 4.42; in series [2], 4.82. In the series listed under Homo sapiens, the Ratio IC50 was 2.5.
For `CC1(C)CC(=O)c2ccc(OCc3cccc(Br)c3)cc2O1`, the inhibition at 100 µM in series [1] is 16%. Also, the pIC50 in [2] is 7.28.
With `CC1(C)CC(=O)c2ccc(OCc3ccc(Cl)cc3)cc2O1`, in series [1], the inhibition at 100 µM came to 28%.
For the compound `Cc1cccc(COc2ccc3c(c2)OC(C)(C)CC3=O)c1`, the inhibition at 100 µM in [1] is 18%. Further, the negative logarithm of the IC50 (pIC50) in series [2] was 7.01.
`O=C1CCOc2cc(OCc3ccc(Br)cc3)ccc21`: the inhibition at 100 µM in [1] amounted to 19%. Moreover, in series [2], the pIC50 was 7.67.
The like results for `O=C1CCOc2cc(OCCCc3ccccc3)ccc21` were, in that order, 65% and 4.67.
As for `O=C1CCOc2cc(OCc3cccc(F)c3)ccc21`, the inhibition at 100 µM in series [1] is 26%. Besides, the pIC50 in series [2] was 7.28. Besides, in the series filed under Homo sapiens, the Ratio IC50 was over 1900.
Regarding `CC1(C)CC(=O)c2ccc(OCc3ccc(F)cc3)cc2O1`, in the series on SH-SY5Y, the Activity result is “Non-toxic”. In [1], the inhibition at 100 µM stood at 25%.
Take `CC1(C)CC(=O)c2ccc(OCc3cccc(F)c3)cc2O1`: in [1], the inhibition at 100 µM is 18%. Besides, the pIC50 in series [2] is 7.18.
On the same counts, the results for `N#Cc1ccc(COc2ccc3c(c2)OCCC3=O)cc1` are 27% and 7.33.
